Measured values published in patent US20140193531A1, “Aqueous extracts of deschampsia antarctica” (Uxmal S.A, priority 2012, published 2014).

Legend:
[1] = system: HaCaT cells; assay type: cell-based, human
Experimental: For this assay, 100,000 cells were seeded in a 24-well plate at a total volume of 500 ul in a complete culture medium. After incubating for 24 hours at 37° C. in an atmosphere of 5% CO2, the cells were irradiated with different concentrations of UV light in an irradiation system inside a type 2 biosafety laminar flow hood. The system consisted of 2 florescent tubes, one UVA-emitting 36 W PL-L (320-400 nm) and one UVB-emitting 20 W TL (290-320 nm) (Philips, Eindhoven, the Netherlands). Both tubes were located 5 cm from the bottom of the well to produce homogeneous irradiation intensity. The irradiation intensity was monitored with radiometers for UVB (Solarmeter 6.2 digital UVB radiometer, Solartech Inc., Harrison Township, Mich.) and UVA (Tecpel, CHY-732, Taiwan). The HaCaT cells were irradiated at different time intervals (Table 5) to reach the different accumulative doses of UVA and UVB (Gao et al. 2007). After irradiation with UVA+UVB light, the cells were incubated for 24 hours and the viability of the cells was measured with the MTS assay.
In this assay, 100,000 cells were seeded in a 24-well plate. After incubating for 24 hours at 37° C. in an atmosphere of 5% de CO2, the cells were washed with PBS and incubated with AEDA doses of between 4.5 and 0.5 mg/ml previously diluted in PBS. […]

[2] = system: IL-6 secretion in TNFα-stimulated 3T3-L1 adipocytes; assay: TNFα-stimulated IL-6 secretion in 3T3-L1 adipocytes; assay type: cell-based, Mouse; conditions: data not shown
Experimental: Post-differentiation, D6/D7 adipocytes were treated with test material 4 h prior to the addition of TNFα at a final concentration of 10 ng/mL. Following overnight incubation of approximately 18 h, the supernatant media were removed and assayed for IL-6. IL-6 secreted into the medium in response to TNFα stimulation was quantified using the Quantikine® Mouse IL-6 Immunoassay kit Immunoassay kit with no modifications (R&D Systems, Minneapolis, Minn.). Experiments assessing the anti-inflammatory activity of the test samples were repeated a minimum of 2 independent times. For statistical analysis, the effects of test materials IL-6 secretion were normalized, respectively, to the TNFα positive control to generate IL-6 indexes. Differences among the treatments were determined by analysis of variance and student's least significant difference test without correction for multiple comparisons; the nominal 5% probability of a type I error was used. Ninety-five percent CI were computed using the ANOVA error mean square estimate of variance (Excel®, Microsoft, Redmond, Wash.).

COc1cc(/C=C/C(=O)O)ccc1O [ferulic acid]
effect on irradiated keratinocytes at higher doses [1]: possible photocytotoxic effect

C=C[C@@]1(C)CC(=O)[C@]2(O)[C@@]3(C)[C@@H](O)CCC(C)(C)[C@@H]3[C@H](O)[C@H](OC(C)=O)[C@@]2(C)O1 [Forskolin]
increase of IL-6 secretion above the TNFα positive control [2]: over 100%
